In paper PMC11411626 (2024):
One block for each compound: values may come before it.

Tests used:
[1] = tested on: CAG RNA oligonucleotide (RNA, repeat) GCAGCAGCUUCGGCAGCAGC; assay: fluorescence well-plate screening; conditions: buffer pH 7, 5 μM ligand, 1 equiv. RNA
[2] = tested on: CAG RNA oligonucleotide (RNA, repeat) GCAGCAGCUUCGGCAGCAGC; assay: spectrophotometric titration; conditions: 2a 5 μM, RNA/2a 0–4; SpecFit 1:1 fit
[3] = tested on: CUG RNA motif (RNA, repeat) GGUCGCUGCUGCACGAAAGUGCUGCUGCGACC; assay: fluorescence well-plate screening; conditions: buffer pH 7, 5 μM ligand, 1 equiv. RNA
[4] = no pronounced interaction, small fluorescence change

Compound: CN(C)CCOc1ccc(/C=C2\Oc3cc(OCCN(C)C)ccc3C2=O)cc1
K [2]: (1.4 ± 0.1) × 10^5 M^-1
binding ([3]; absent or very weak interaction): no

Compound: COc1cc(/C=C2\Nc3ccccc3C2=O)ccc1OCCCN(C)C
binding [1]: no

Compound: COc1ccc(/C=C2\Oc3ccccc3C2=O)cc1
binding [1]: no

Compound: O=C1/C(=C/c2c3ccccc3cc3ccccc23)Oc2ccccc21
binding ([1]; 21% light-up, aggregation prevented titration): yes
binding ([3]; excitation 450 nm, almost no interaction): no

Other lines, results leading:

binding [1, 4]: no
Compound: CN(C)CCOc1ccc(/C=C2\Oc3cc(O)ccc3C2=O)cc1

binding [1, 4]: no
Compound: COc1ccc(/C=C2\Oc3cc(OCCN(C)C)ccc3C2=O)cc1

binding ([1]; 57% quenching): yes
Compound: N=C(N)c1ccc(-c2ccc(-c3ccc(C(=N)N)cc3)o2)cc1
